Experimental data as given in patent publication US9725416B2, “Ethynyl derivatives” (Hoffmann-La Roche Inc., priority 2014, dated 2017).

Molecular target: T1, human mGlu4 receptor (Homo sapiens, UniProt Q14833)
T1 construct: expressed in transfected cells; host or cells: HEK-293 (monoclonal, stably transfected)
Experiment: Ca2+ mobilization in vitro assay on recombinant human mGlu4 expressed in HEK293 cells (mGlu4 PAM)
Assay type: cell-based
Settings: for Emax: HEK293, maximal response in % of the maximal stimulatory effect obtained with saturating concentrations of L-AP4, read-out: Eff. (%); for EC50: HEK-293 cells, Ca2+ mobilization, L-AP4 added at EC20
Experimental: Determination of EC50 Values Using a Ca2+ mobilization in vitro Assay on Recombinant Human mGlu4 Expressed in HEK293 cells:
A monoclonal HEK-293 cell line stably transfected with a cDNA encoding for the human mGlu4 receptor was generated; for the work with mGlu4 Positive Allosteric Modulators (PAMs), a cell line with low receptor expression levels and low constitutive receptor activity was selected to allow the differentiation of agonistic versus PAM activity. Cells were cultured according to standard protocols (Freshney, 2000) in Dulbecco's Modified Eagle Medium with high glucose supplemented with 1 mM glutamine, 10% (vol/vol) heat-inactivated bovine calf serum, Penicillin/Streptomycin, 50 μg/ml hygromycin and 15 μg/ml blasticidin (all cell culture reagents and antibiotics from Invitrogen, Basel, Switzerland).
About 24 hrs before an experiment, 5×10^4 cells/well were seeded in poly-D-lysine coated, black/clear-bottomed 96-well plates. The cells were loaded with 2.5 μM Fluo-4AM in loading buffer (1×HBSS, 20 mM HEPES) for 1 hr at 37° C. and washed five times with loading buffer. The cells were transferred into a Functional Drug Screening System 7000 (Hamamatsu, Paris, France), and 11 half logarithmic serial dilutions of test compound at 37° C. were added and the cells were incubated for 10-30 min. with on-line recording of fluorescence. Following this pre-incubation step, the agonist (2S)-2-amino-4-phosphonobutanoic acid (L-AP4) was added to the cells at a concentration corresponding to EC20 with on-line recording of fluorescence; in order to account for day-to-day variations in the responsiveness of cells, the EC20 of L-AP4 was determined immediately ahead of each experiment by recording of a full dose-response curve of L-AP4.
Responses were measured as peak increase in fluorescence minus basal (i.e. fluorescence without addition of L-AP4), normalized to the maximal stimulatory effect obtained with saturating concentrations of L-AP4. Graphs were plotted with the % maximal stimulatory using XLfit, a curve fitting program that iteratively plots the data using Levenburg Marquardt algorithm. The single site competition analysis equation used was y=A+((B−A)/(1+((x/C)D))), where y is the % maximal stimulatory effect, A is the minimum y, B is the maximum y, C is the EC50, x is the log 10 of the concentration of the competing compound and D is the slope of the curve (the Hill Coefficient). From these curves the EC50 (drug concentration at which 50% of the maximal receptor activation was achieved), the Hill coefficient as well as the maximal response in % of the maximal stimulatory effect obtained with saturating concentrations of L-AP4 were calculated (see FIG. 1).
A depression of the signal observed after addition of the EC20 concentration of L-AP4was indicative of an inhibitory activity of the test compound.

T1 sequence (Q14833 33-912): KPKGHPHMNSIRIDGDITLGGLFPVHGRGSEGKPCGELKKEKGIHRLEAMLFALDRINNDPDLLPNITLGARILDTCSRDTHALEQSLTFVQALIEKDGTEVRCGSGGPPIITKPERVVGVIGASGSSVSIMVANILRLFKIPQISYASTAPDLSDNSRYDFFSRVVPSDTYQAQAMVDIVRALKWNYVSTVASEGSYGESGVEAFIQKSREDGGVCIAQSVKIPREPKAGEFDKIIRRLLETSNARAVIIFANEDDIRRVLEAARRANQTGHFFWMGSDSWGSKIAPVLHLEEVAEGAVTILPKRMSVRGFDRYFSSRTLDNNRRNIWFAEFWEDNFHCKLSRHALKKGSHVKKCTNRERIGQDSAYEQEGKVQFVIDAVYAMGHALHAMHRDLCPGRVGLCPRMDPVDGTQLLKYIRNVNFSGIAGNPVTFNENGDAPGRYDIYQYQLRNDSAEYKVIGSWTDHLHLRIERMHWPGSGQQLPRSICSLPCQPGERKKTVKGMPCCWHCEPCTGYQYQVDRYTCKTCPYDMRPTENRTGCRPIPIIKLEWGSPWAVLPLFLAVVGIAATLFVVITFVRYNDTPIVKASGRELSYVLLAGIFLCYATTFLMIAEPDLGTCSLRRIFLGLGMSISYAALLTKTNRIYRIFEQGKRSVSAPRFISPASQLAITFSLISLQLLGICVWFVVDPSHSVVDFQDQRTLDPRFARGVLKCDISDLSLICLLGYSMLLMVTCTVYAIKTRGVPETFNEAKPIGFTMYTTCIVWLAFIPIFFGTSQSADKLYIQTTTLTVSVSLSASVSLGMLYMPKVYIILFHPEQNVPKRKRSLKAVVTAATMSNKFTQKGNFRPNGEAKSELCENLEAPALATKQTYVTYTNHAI

SMILES	Emax [%]	EC50 [nM]
CCC1(CC)CC(=O)N(c2c(F)cc(C#Cc3ccccc3)cc2F)C(=O)N1 [Example 21, 3-[2,6-Difluoro-4-(2-phenylethynyl)phenyl]-6,6-diethyl-hexahydropyrimidine-2,4-dione]	106	145
CN1C(=O)N(c2ccc(C#Cc3ccccc3)cn2)C(=O)CC1(C)c1ccccc1 (racemic) [Example 23, (6RS)-1,6-Dimethyl-6-phenyl-3-[5-(2-phenylethynyl)-2-pyridyl]hexahydropyrimidine-2,4-dione]	126	947
CCC1(c2ccccc2)CC(=O)N(c2c(F)cc(C#Cc3cccnc3)cc2F)C(=O)N1C (racemic) [Example 48, (6RS)-3-[2,6-Difluoro-4-[2-(3-pyridyl)ethynyl]phenyl]-6-ethyl-1-methyl-6-phenyl-hexahydropyrimidine-2,4-dione]	108	88
CN1C(=O)N(c2c(F)cc(C#Cc3ccccc3)cc2F)C(=O)CC1(C)c1ccccn1 (racemic) [Example 27, (6RS)-3-[2,6-Difluoro-4-(2-phenylethynyl)phenyl]-1,6-dimethyl-6-(2-pyridyl)hexahydropyrimidine-2,4-dione]	99	72
CC12CC(=O)N(c3c(F)cc(C#Cc4ccccc4)cc3F)C(=O)N1CCNC2=O (racemic) [Example 25, (9aRS)-7-[2,6-Difluoro-4-(2-phenylethynyl)phenyl]-9a-methyl-2,3,4,9-tetrahydropyrazino[1,2-c]pyrimidine-1,6,8-trione]	105	83
CN1C(=O)N(c2c(F)cc(C#Cc3ccccc3)cc2F)C(=O)CC12CCCC2 [Example 6, 8-[2,6-Difluoro-4-(2-phenylethynyl)phenyl]-6-methyl-6,8-diazaspiro[4.5]decane-7,9-dione]	142	72
CN1C(=O)N(c2c(F)cc(C#Cc3cccnc3)cc2F)C(=O)CC1(C)c1ccc(Cl)cc1 (racemic) [Example 41, (6RS)-6-(4-Chlorophenyl)-3-[2,6-difluoro-4-[2-(3-pyridyl)ethynyl]phenyl]-1,6-dimethyl-hexahydropyrimidine-2,4-dione]	115	229
CN1C(=O)N(c2c(F)cc(C#Cc3cccnc3)cc2F)C(=O)C[C@@]1(C)c1cccnc1 [Example 53, (6S)-3-[2,6-Difluoro-4-[2-(3-pyridyl)ethynyl]phenyl]-1,6-dimethyl-6-(3-pyridyl)hexahydropyrimidine-2,4-dione]	110	80
Cc1nccc([C@]2(C)CC(=O)N(c3c(F)cc(C#Cc4ccccc4)cc3F)C(=O)N2C)n1 [Example 76, (6S)-3-[2,6-Difluoro-4-(2-phenylethynyl)phenyl]-1,6-dimethyl-6-(2-methylpyrimidin-4-yl)hexahydropyrimidine-2,4-dione]	111	103
CN1C(=O)N(c2ncc(C#Cc3ccccc3)cc2F)C(=O)CC1(C)c1ccccc1 (racemic) [Example 45, (6RS)-3-[3-Fluoro-5-(2-phenylethynyl)-2-pyridyl]-1,6-dimethyl-6-phenyl-hexahydropyrimidine-2,4-dione]	107	72
CCN1C(=O)N(c2c(F)cc(C#Cc3ccccc3)cc2F)C(=O)C[C@@]1(C)c1ccnc(C)c1 [Example 77, (6S)-3-[2,6-Difluoro-4-(2-phenylethynyl)phenyl]-1-ethyl-6-methyl-6-(2-methyl-4-pyridyl)hexahydropyrimidine-2,4-dione]	111	68
CN1C(=O)N(c2c(F)cc(C#Cc3cccnc3)cc2F)C(=O)CC1(C)c1ccccc1 (stereo in doubt) [Example 20, (6R)-3-[2,6-Difluoro-4-[2-(3-pyridyl)ethynyl]phenyl]-1,6-dimethyl-6-phenyl-hexahydropyrimidine-2,4-dione]	175	239
CN1C(=O)N(c2c(F)cc(C#Cc3ccccc3)cc2F)C(=O)CC12CCOC2 (racemic) [Example 12, (5RS)-8-[2,6-Difluoro-4-(2-phenylethynyl)phenyl]-6-methyl-2-oxa-6,8-diazaspiro[4.5]decane-7,9-dione]	115	260

Now those with a lower EC50, led by results:

Emax [%]	EC50 [nM]	SMILES
109	66	CN1C(=O)N(c2c(F)cc(C#Cc3ccccc3)cc2F)C(=O)CC1(C)C(C)(C)C (racemic) [Example 44, (6RS)-6-tert-Butyl-3-[2,6-difluoro-4-(2-phenylethynyl)phenyl]-1,6-dimethyl-hexahydropyrimidine-2,4-dione]
102	56	Cc1cc([C@]2(C)CC(=O)N(c3c(F)cc(C#Cc4ccccc4)cc3F)C(=O)N2C)ccn1 [Example 62, (6S)-3-[2,6-Difluoro-4-(2-phenylethynyl)phenyl]-1,6-dimethyl-6-(2-methyl-4-pyridyl)hexahydropyrimidine-2,4-dione]
115	18	CN1C(=O)N(c2c(F)cc(C#Cc3ccccc3)cc2F)C(=O)C[C@@]1(C)c1ccc(=O)[nH]n1 [Example 82, (6S)-3-[2,6-Difluoro-4-(2-phenylethynyl)phenyl]-1,6-dimethyl-6-(6-oxo-1H-pyridazin-3-yl)hexahydropyrimidine-2,4-dione]
107	64	CC(C)C1(C)CC(=O)N(c2c(F)cc(C#Cc3ccccc3)cc2F)C(=O)N1C (racemic) [Example 26, (6RS)-3-[2,6-Difluoro-4-(2-phenylethynyl)phenyl]-6-isopropyl-1,6-dimethyl-hexahydropyrimidine-2,4-dione]
119	28	CN1C(=O)N(c2c(F)cc(C#Cc3ccccc3)cc2F)C(=O)CC1(C)c1ccccc1 (racemic) [Example 13, (6RS)-3-[2,6-Difluoro-4-(2-phenylethynyl)phenyl]-1,6-dimethyl-6-phenyl-hexahydropyrimidine-2,4-dione]
123	36	CN1C(=O)N(c2c(F)cc(C#Cc3ccccc3)cc2F)C(=O)C[C@@]1(C)c1ccc(=O)[nH]c1 [Example 65, (6S)-3-[2,6-Difluoro-4-(2-phenylethynyl)phenyl]-1,6-dimethyl-6-(6-oxo-1H-pyridin-3-yl)hexahydropyrimidine-2,4-dione]
241	49	CCC1(C)CC(=O)N(c2c(F)cc(C#Cc3ccccc3)cc2F)C(=O)N1C (racemic) [Example 18, (6RS)-3-[2,6-Difluoro-4-(2-phenylethynyl)phenyl]-6-ethyl-1,6-dimethyl-hexahydropyrimidine-2,4-dione]
88	57	CN1C(=O)N(c2c(F)cc(C#Cc3ccccc3)cc2F)C(=O)C[C@@]1(C)c1ccc2nccn2n1 [Example 85, (6S)-3-[2,6-Difluoro-4-(2-phenylethynyl)phenyl]-6-imidazo[1,2-b]pyridazin-6-yl-1,6-dimethyl-hexahydropyrimidine-2,4-dione]
105	46	COc1ncc([C@]2(C)CC(=O)N(c3c(F)cc(C#Cc4ccccc4)cc3F)C(=O)N2C)cn1 [Example 79, (6S)-3-[2,6-Difluoro-4-(2-phenylethynyl)phenyl]-6-(2-methoxypyrimidin-5-yl)-1,6-dimethyl-hexahydropyrimidine-2,4-dione]
